Measured values from patent publication US12528777B2, “Quinazolinones derivatives for treatment of non-alcoholic fatty liver disease, preparation and use thereof” (Council of Scientific and Industrial Research, priority 2020, dated 2026).
Entries after “also recorded” stand apart in the source; their conditions may differ.

Legend:
HepG2 cells = experiment: Confocal microscopy: lipid droplets in oleate induced HepG2 cells; format: cell-based; parameters: key to Reduction in Lipid Droplets: + = slight or in insignificant; ++ = Moderate; +++ and ++++ = active; +++ and ++++ = active; +++++ = very active; conditions: for Reduction in Lipid Droplets: oleate induced HepG2 cells, score; for Number of lipid droplets: HepG2 cells, 250 μM oleate induction
Protocol: (§1) To select the compounds capable of inhibiting the ubiquitination of ATGL by COP1 by targeting the VP motif, confocal microscopy was performed with the provided molecules. If the compound was effective in inhibiting the interaction, there would be a reduction in the number of fat droplets in the cells after treatment. […] With this rationale in mind, HepG2 cells were induced to accumulate lipid droplets after treatment with 250 µM of oleate and 10 μM of the specific compounds were added. The potential of the compounds to bring about a reduction in the number of fat droplets was then checked by comparison with oleate induced cells by counting number of droplets of approximately 20 cells from each treatment and calculating the average number of lipid droplets of each cell. The selected compounds were then subjected to dose dependent treatments and the ones which could maintain its potency to reduce fat droplets at lower doses were then selected for western blot analysis. The compound which could reduce the number of fat droplets in the cells are expected to raise the levels of ATGL since they are likely to deter COP1 from ubiquitinating ATGL. This increase will be visible only in the protein level and gene expression is likely to remain unchanged since ubiquitination is a […] modification. Thus, western blot was performed to check ATGL levels in the cells with the selected molecules.
HepG2 cells were plated in confocal dishes (SPL, Genetix Biotech Asia Pvt. Ltd.). The cells were allowed to adhere and divide for 16 hours. 10 μM for initial screening and 10 nM, 20 nM, 50 nM, 100 nM, 200 nM, 500 nM, 1 μM and 5 μM for dose dependent assays of the compounds 9 and 107 were dissolved in DMSO and added to the cells. 250 μM of oleate was used for induction. BSA (Sigma Aldrich) was used as a negative control. Post 24 hours of treatment, media was decanted from the cells and washed with 1×PBS solution to remove any remnant. 200 μl of staining solution containing 200 ng/ml BODIPY (Invitrogen) and 25 µg/ml HOECKST342 (Invitrogen) were added to the cells and incubated at 37° C. for 30 minutes under dark conditions. Cells were washed 3 times with 1×PBS to remove excess stain. FLUOVIEW FV10i (Olympus) was used to visualise the cells.

ATGL = experiment: Western blot of ATGL level in HepG2 cells; format: cell-based; parameters: key to Increase in ATGL level: + = slight or in insignificant; ++ = Moderate; +++ and ++++ = active; +++ and ++++ = active; +++++ = very active; conditions: western blot; for Increase in ATGL level: HepG2 cells, score; for ATGL level in HepG2 cells: 24 hours, 10 μM screening or 50 nM-5 μM dose dependent
Protocol: as §1
HepG2 cells were treated with the compounds 9, 10, 11, 17, 18, 23, 24, 115, 123, 127, 139,107, 171, 179, 73, 187, 211, 215, 219, 223, 232, 238, 241, 244, 258, 299, 308, and 333a, (10 μM for initial screening and 50 nM, 100 nM, 200 nM, 500 nM, 1 μM and 5 μM for dose dependent assays) for 24 hours. After removing media from the cells, the wells were washed with 1×PBS twice to remove any remnant media. Cells were then lysed in lysis buffer containing 50 mM Tris-HCl (pH 7.4), 100 mM NaCl, 1 mM EDTA, 1 mM EGTA, 1% Triton X-100 and protease inhibitor cocktail (Millipore, Billierica, MA, USA). Following centrifugation at 20,000 g for 20 minutes, the protein solution was extracted from the cells. Protein was estimated using Bradford assay. Bradford's reagent (BioRad) was diluted in 1:4 ratio in double distilled water. 2 μl of protein sample was added to 100 μl of the reagent and absorbance was measured at 595 nm. […] of protein was diluted in lysis buffer. 1× loading buffer diluted from 5× stock containing 250 mM Tris-HCl (pH 6.8), 10% SDS, 50% glycerol, 0.1% bromophenol Blue and 10% β-mercaptoethanol was added. The protein samples were then heated at 95° C. for 10 minutes, cooled and centrifuged at 12,000 g for 2 minutes prior to loading.
For western blotting, the proteins were resolved in 10% SDS PAGE (discontinuous buffer system). 1× running buffer containing SDS, Tris Base and Glycine was used to run the gel at 80V for approximately 2 hours. Transfer was done using PVDF membrane (Millipore) having pore size of 0.45 μm. 1× transfer buffer containing Tris-Base, Glycine and 20% methanol was used for wet transfer. Transfer was done at 90V for 3 hours. Following transfer, the PVDF membrane containing the proteins were washed in 1×PBST comprising of 1×PBS and 1% Tween 20 (Sigma Aldrich). The membrane was then incubated for 1 hour at room temperature in 5% skim milk powder to block the non-specific sites. Following multiple washes with 1×PBST to wash away any remaining blocking buffer, the required primary antibody (COP1 [Bethyl Laboraties], ATGL [Cell Signalling Technology] or Actin[Cell Signalling Technology]) prepared with 1×PBST, 1% Bovine Serum Albumin and 0.04% Sodium Azide was added to the membrane and incubated overnight at 4° C. The next day, the membrane was again washed multiple times with 1×PBST to remove any unbound primary antibody. The membrane was then incubated with goat anti-rabbit secondary antibody (Genei) for 1 hour at room temperature and washed again for multiple times with 1×PBST. […]

Structure (SMILES)	Reduction in Lipid Droplets (HepG2 cells)	Increase in ATGL level (ATGL)	Number of lipid droplets (HepG2 cells)	ATGL level in HepG2 cells (ATGL)
COCCn1cnc2ccc(NC(=O)Nc3cccc(-c4nc5ccccc5o4)c3)cc2c1=O [Compound 21, 1-(3-(benzo[d]oxazol-2-yl)phenyl)-3-(3-(2-methoxyethyl)-4-oxo-3,4-dihydroquinazolin-6-yl)urea]	+	+	–	–
CCOCCn1cnc2ccc(NC(=O)Nc3ccc(C(C)=O)cc3)cc2c1=O [Compound 94, 1-(4-acetylphenyl)-3-(3-(2-ethoxyethyl)-4-oxo-3,4-dihydroquinazolin-6-yl)urea]	++	+	–	–
COCCn1cnc2cc(NC(=O)Nc3ccc(C(C)=O)cc3)ccc2c1=O [Compound 193, 1-(4-acetylphenyl)-3-(3-(2-methoxyethyl)-4-oxo-3,4-dihydroquinazolin-7-yl)urea]	+	+	–	–
CCOC(=O)c1cccc(NC(=O)Nc2ccc3ncn(CCOC)c(=O)c3c2)c1 [Compound 42, ethyl 3-(3-(3-(2-methoxyethyl)-4-oxo-3,4-dihydroquinazolin-6-yl)ureido)benzoate]	+	+	–	–
COCCn1cnc2ccc(NC(=O)Nc3cc(C(=O)OC)ccc3OC)cc2c1=O [Compound 12, methyl 4-methoxy-3-(3-(3-(2-methoxyethyl)-4-oxo-3,4-dihydroquinazolin-6-yl)ureido)benzoate]	++	+++	–	–
COCCn1cnc2ccc(NC(=O)Nc3ccc(F)c(Cl)c3)cc2c1=O [Compound 36, 1-(3-chloro-4-fluorophenyl)-3-(3-(2-methoxyethyl)-4-oxo-3,4-dihydroquinazolin-6-yl)urea]	+	+++	–	–
COCCn1cnc2ccc(NC(=O)Nc3ccccc3OC)cc2c1=O [Compound 41, 1-(3-(2-methoxyethyl)-4-oxo-3,4-dihydroquinazolin-6-yl)-3-(2-methoxyphenyl)urea]	++	++++	–	–
CC(=O)c1cccc(NC(=O)Nc2ccc3ncn(-c4ccccn4)c(=O)c3c2)c1 [Compound 159, 1-(3-acetylphenyl)-3-(4-oxo-3-(pyridin-2-yl)-3,4-dihydroquinazolin-6-yl)urea]	–	+	reduction in lipid droplets	some sort of increase in ATGL level
COCCn1cnc2ccc(NC(=O)Nc3cccc(C(=O)NC(C(=O)OC)C(C)C)c3)cc2c1=O (stereo not drawn) [Compound 16, methyl 2-(3-(3-(3-(2-methoxyethyl)-4-oxo-3,4-dihydroquinazolin-6-yl)ureido)benzamido)-3-methylbutanoate]	+++	++++	–	–
COCCn1cnc2ccc(NC(=O)Nc3ccc(C(=O)N4CCCC4)cc3)cc2c1=O [Compound 20, 1-(3-(2-methoxyethyl)-4-oxo-3,4-dihydroquinazolin-6-yl)-3-(4-(pyrrolidine-1-carbonyl)phenyl)urea]	++	++	–	ability to increase ATGL level
CC(=O)c1cccc(NC(=O)Nc2ccc3ncn(CCN4CCCCC4)c(=O)c3c2)c1 [Compound 147, 1-(3-acetylphenyl)-3-(4-oxo-3-(2-(piperidin-1-yl)ethyl)-3,4-dihydroquinazolin-6-yl)urea]	++	+++	reduction in lipid droplets	some sort of increase in ATGL level
COCCn1cnc2ccc(NC(=O)Nc3ccc(OC(F)(F)F)cc3)cc2c1=O [Compound 37, 1-(3-(2-methoxyethyl)-4-oxo-3,4-dihydroquinazolin-6-yl)-3-(4-(trifluoromethoxy)phenyl)urea]	+	+	–	–
COCCn1cnc2ccc(NC(=O)Nc3cccc([N+](=O)[O-])c3)cc2c1=O [Compound 8, 1-(3-(2-methoxyethyl)-4-oxo-3,4-dihydroquinazolin-6-yl)-3-(3-nitrophenyl)urea]	++	+	–	–
COCCn1cnc2ccc(NC(=O)Nc3cccc(C(=O)N4CCOCC4)c3)cc2c1=O [Compound 19, 1-(3-(2-methoxyethyl)-4-oxo-3,4-dihydroquinazolin-6-yl)-3-(3-(morpholine-4-carbonyl)phenyl)urea]	++	+	–	ability to increase ATGL level
COCCn1cnc2ccc(NC(=O)Nc3cccc(NC(C)=O)c3)cc2c1=O [Compound 22, N-(3-(3-(3-(2-methoxyethyl)-4-oxo-3,4-dihydroquinazolin-6-yl)ureido)phenyl)acetamide]	+	+	–	–
COCCn1cnc2ccc(NC(=O)Nc3cccc(C(=O)N(C)C)c3)cc2c1=O [Compound 17, 3-(3-(3-(2-methoxyethyl)-4-oxo-3,4-dihydroquinazolin-6-yl)ureido)-N,N-dimethylbenzamide]	+++	+++	–	increased ATGL level; also recorded: ability to increase ATGL level
CCOC(=O)Cn1cnc2ccc(NC(=O)Nc3ccc(OC(F)(F)F)cc3)cc2c1=O [Compound 84, ethyl 2-(4-oxo-6-(3-(4-(trifluoromethoxy)phenyl)ureido)quinazolin-3 (4H)-yl)acetate]	+++	++	–	–
COCCn1c(-c2ccc(F)cc2)nc2ccc(NC(=O)Nc3cccc(C(C)=O)c3)cc2c1=O [Compound 115, 1-(3-acetylphenyl)-3-(2-(4-fluorophenyl)-3-(2-methoxyethyl)-4-oxo-3,4-dihydroquinazolin-6-yl)urea]	+	+	–	–
CC(=O)c1cccc(NC(=O)Nc2ccc3ncn(C4CCN(C)CC4)c(=O)c3c2)c1 [Compound 163, 1-(3-acetylphenyl)-3-(3-(1-methylpiperidin-4-yl)-4-oxo-3,4-dihydroquinazolin-6-yl)urea]	++	+	reduction in lipid droplets	some sort of increase in ATGL level
CCc1cccc(NC(=O)Nc2ccc3ncn(CCOC)c(=O)c3c2)c1 [Compound 13, 1-(3-ethylphenyl)-3-(3-(2-methoxyethyl)-4-oxo-3,4-dihydroquinazolin-6-yl)urea]	+	+	–	–
